Experimental data reported in ChEMBL document CHEMBL1165915, “Dual Src and Abl inhibitors target wild type Abl and the AblT315I Imatinib-resistant mutant with different mechanisms” (Bioorg Med Chem, 2010).

Legend:
Homo sapiens [1] = species: Homo sapiens; test: Selectivity ratio of Ki for human recombinant ABL T315I mutant to Ki for human recombinant ABL using ATP as substrate
Homo sapiens [2] = species: Homo sapiens; test: Selectivity ratio of Ki for human recombinant ABL T315I mutant to Ki for human recombinant ABL using abtide peptide as substrate

For `NC(=O)c1cccc(-c2cc(Nc3ccc(OC(F)(F)F)cc3)ncn2)c1`, the Ratio Ki (Homo sapiens [1]) was 40 and the Ratio Ki (Homo sapiens [2]) was 40.
With `Cc1ccc(NC(=O)c2ccc(CN3CCN(C)CC3)cc2)cc1Nc1nccc(-c2cccnc2)n1` the Ratio Ki (Homo sapiens [1]) was 20 and the Ratio Ki (Homo sapiens [2]) was 20.
